Test results: patent US20250085201A1, “SUBSTITUTED QUADRUPOLAR FLUORESCENT DYES FOR LIVE CELL IMAGING” (Northwestern University, priority 2023, published 2025)

What was measured:
[1] = Transient absorption (fsTA/nsTA) and time-resolved fluorescence spectroscopy; format: physicochemical; details: in H2O
[2] = Absolute fluorescence quantum yield (integrating sphere); format: physicochemical; details: in H2O
Description: Fluorescent dyes were dissolved in the appropriate solvents to afford 1 mM solutions prior to spectroscopic analysis. A portion of 30 μL of a 1 mM solution was diluted by adding a selected solvent to a sample with a total volume of 3000 μL, affording a 1×10^−5 M solution. UV/Vis Absorption spectra were recorded in glass cuvettes on a UV-3600 Shimadzu spectrophotometer. Steady-state emission spectra were acquired in quartz cuvettes with optical path-lengths of 10 mm containing the solution being analyzed using a HORIBA Fluoromax4 spectrofluorometer, which was equipped with an integrating sphere for determining the absolute photoluminescence quantum yield.
Steady-state and time-resolved emission spectra for dyes 1-6, 7·2PF6 and 9·4PF6 were acquired using a HORIBA Fluorolog-3 spectrofluorometer, equipped with a time-correlated single photon counting (TCSPC) module (diode laser excitation at λ=375 nm) and an integrating sphere, which was used for absolute photo-luminescence quantum yield determinations. Picosecond time-resolved fluorescence measurements were recorded using a commercial direct-diode-pumped 100 kHz amplifier (Spirit 1040-HE, Spectra-Physics), producing a fundamental beam of 1040 nm (350 fs, 12 W) which was used to pump a non-collinear optical parametric amplifier (Spirit-NOPA, SpectraPhysics) capable of delivering tunable, high-repetition-rate pulses with pulse widths as short as sub-20 fs. Dyes 1-6, 7·2PF6 and 9·4PF6 were excited with 350 nm, 2 nJ laser pulses. Fluorescence was detected using a Hamamatsu C4780 Streakscope as previously described in the literature. Samples were prepared in 2-mm quartz cuvettes. All data were acquired in the single-photon-counting mode using the Hamamatsu HPD-TA software. The temporal resolution was approximately 2% of the sweep window. Single wavelength kinetic analysis was performed using a nonlinear least-squares fit to a sum of exponentials convoluted with an instrument response function. Visible and near-infrared femtosecond and nanosecond transient absorption (fsTA and nsTA, respectively) spectroscopies were performed following descriptions already recorded in the literature. The 330 nm, ˜100 fs pump pulses were generated at 1 μJ per pulse using a commercial collinear optical parametric amplifier (TOPAS-Prime, Light-Conversion, Ltd.); 414-nm pump pulses were obtained by second-harmonic generation of the 828 nm fundamental. The pump polarization was randomized using a commercial depolarizer (DPU-25-A, Thorlabs, Inc.) to eliminate any orientational dynamics resulting from the experiment. Spectra were collected on commercial spectrometers (customized Ultrafast Systems Helios and EOS spectrometers, for fsTA and nsTA, respectively) for each time window. All samples were stirred to avoid localized heating or degradation effects. The optical density was maintained at 0.6 for all samples.
Steady-state and time-resolved emission spectra for dyes 7·2PF6 and 9·4PF6 were acquired using a HORIBA Fluorolog-3 spectrofluorometer, equipped with a time-correlated single photon counting (TCSPC) module (diode laser excitation at =375 nm) and an integrating sphere, which was used for absolute photo-luminescence quantum yield determinations. Picosecond time-resolved fluorescence measurements were recorded using a commercial direct-diode-pumped 100 kHz amplifier (Spirit 1040-HE, Spectra-Physics), producing a fundamental beam of 1040 nm (350 fs, 12 W) which was used to pump a non-collinear optical parametric amplifier (Spirit-NOPA, SpectraPhysics) capable of delivering tunable, high-repetition-rate pulses with pulse widths as short as sub-20 fs. The samples 7·2PF6 and 9·4PF6 were excited with […], 2 nJ laser pulses. Fluorescence was detected using a Hamamatsu C4780 Streakscope as previously described in the literature.^71 Samples were prepared in 2-mm quartz cuvettes. All data were acquired in the single-photon-counting mode using the Hamamatsu HPD-TA software. […]

SMILES: COc1cc2c(OC)cc1-c1cc[n+](cc1)Cc1ccc(cc1)C[n+]1ccc(cc1)-c1cc(OC)c(cc1OC)-c1cc[n+](cc1)Cc1ccc(cc1)C[n+]1ccc-2cc1 [9·4Cl]
- CT state lifetime [1]: 2.69±0.02 ns
- rate constant k1 from TA data [1]: (1.4 ± 0.3 ps)^−1 (ps)^−1
- non-radiative decay rate constant kNR ([1]; kNR = kobs(1 − ΦF)): (3.16 ± 0.02 ns)^−1 (ns)^−1
- Quantum Yield (ΦF) [2]: 0.15
